In paper PMC10815436, “Toward New AQP4 Inhibitors: ORI-TRN-002” (International Journal of Molecular Sciences, 2024):
pIC50, pKd: −log10 of the molar value. Where “and” joins values, the source holds several entries; their conditions need not be identical. Identical values can stand only once. Like-named read-outs stand apart in the source and are kept apart here.

Key:
[1] = system: human AQP4; conditions: cited from earlier work
[2] = biological target: rat serum albumin (Rattus norvegicus, UniProt P02770); assay: Rat serum albumin affinity (BRAINstorm affinity chromatography); type: binding; conditions: for Kd: read-out: logKaRSA (rat serum albumin affinity) (converted)
Text: (§1) To evaluate the potential drug-like properties of the electronic homologue ORI-TRN-002, we measured the compound’s properties in the Origenis BRAINstorm™ platform. This platform uses affinity chromatography under standard conditions and standard calibrants to measure compound properties with high accuracy and reproducibility. […] It supersedes the solubility and free fraction limitations of the Aeromics/Simcere drug AER-270 [21] (Figure 2). ORI-TRN-002 requires no prodrug approach and serves as an ideal starting point for further optimization.
(§2) The chemical structures of the three AQP4 inhibitors studied and their measured physico-chemical properties (logD at pH 7.4, log10 of molar human serum albumin affinity constant, percent human plasma protein binding, log10 of human alpha acid glycoprotein affinity constant, unbound fraction in liver, and unbound fraction in hepatocytes). TEXT PRINTED IN THE PICTURE: TGN-020: logD: 0.04; logKaHSA: 3.51; hPPB%: 68.20; logKaRSA: 2.72; logKaAGP: 1.18; fu, liver: 1.00; fu, hep: 0.92 | AER-270: logD: 3.31; logKaHSA: 5.46; hPPB%: 99.50; logKaRSA: 5.26; logKaAGP: 6.94; fu, liver: <0.01; fu, hep: <0.01 | ORI-TRN-002: logD: -0.07; logKaHSA: 2.99; hPPB%: 39.20; logKaRSA: 2.89; logKaAGP: 1.88; fu, liver: 1.00; fu, hep: 0.95

[3] = Octanol-water distribution coefficient at pH 7.4 (Origenis BRAINstorm platform, affinity chromatography); type: physicochemical
Text: as §1, §2

[4] = Unbound fraction in hepatocytes (BRAINstorm); type: in vitro ADME
Text: as §1, §2

[5] = Percentage of binding to human plasma proteins (BRAINstorm); type: in vitro ADME
Text: as §1, §2

[6] = biological target: human serum albumin (Homo sapiens, UniProt P02768); assay: Human serum albumin affinity (BRAINstorm affinity chromatography); type: binding; conditions: for Kd: read-out: logKaHSA (log10 of molar human serum albumin affinity constant) (converted)
Text: as §1, §2

[7] = Unbound fraction in liver (BRAINstorm); type: in vitro ADME
Text: as §1, §2

[8] = system: cerebral edema; conditions: cited from earlier work
[9] = system: cerebral edema; parameters: method as in doi:10.1097/01.ccm.0000473851.20338.3b, PMID 29635589; conditions: various traumatic brain injury models; cited from earlier work
[10] = system: AQP4; parameters: method as in PMID 32506554, PMID 30934923; conditions: cited from earlier work
[11] = system: AQP4.M23; parameters: method as in PMID 17178220; conditions: oocytes; cited from earlier work
[12] = system: AQP4-expressing oocytes; assay: Membrane potential of treated AQP4-expressing oocytes (toxicity check); type: cell-based, Xenopus laevis
Text: Following the introduction of an abrupt hyposmotic challenge (−100 mOsm), we determined the osmotic water permeability of the oocytes during the continuous recording of the oocyte volume with a high-resolution volume recording system. This experimental setup allows for the osmotic gradient to be introduced at a faster rate than the rate of cell volume change and sufficiently fast data acquisition to obtain several data points at the initial linear part of the cell volume change, which is required to obtain the osmotic water permeability of an AQP-expressing oocyte. […] The oocytes were exposed to the novel drugs (or control solution) for 60 min. prior to the determination of water permeability. The established AQP4 blockers, TGN-020 and AER-270, served as positive controls.

[13] = biological target: rat AQP4 (Rattus norvegicus, UniProt P47863); assay: Osmotic water permeability of rat AQP4-expressing Xenopus laevis oocytes (high-resolution volume recording, hyposmotic challenge); conditions: IC50 for rAQP4 (AQP4-mediated water permeability), rat AQP4 in Xenopus laevis oocytes, different concentrations, n = 6, mean ± SEM
Text: To resolve ORI-TRN-002’s inhibitory effect on AQP4, rat AQP4 (rAQP) was heterologously expressed in Xenopus laevis oocytes, and the AQP4-mediated water permeability was quantified. Following the introduction of an abrupt hyposmotic challenge (−100 mOsm), we determined the osmotic water permeability of the oocytes during the continuous recording of the oocyte volume with a high-resolution volume recording system. This experimental setup allows for the osmotic gradient to be introduced at a faster rate than the rate of cell volume change and sufficiently fast data acquisition to obtain several data points at the initial linear part of the cell volume change, which is required to obtain the osmotic water permeability of an AQP-expressing oocyte. The native oocyte membrane has a low inherent water permeability, thus the uninjected oocytes display a negligible background (see Figure 3A for summarized data on osmotic water permeabilities; compare 0.21 ± 0.13 × 10^−3 cm s^−1, n = 9, for uninjected oocytes to 3.80 ± 0.33 × 10^−3 cm s^−1, n = 11, for AQP4-expressing oocytes; representative volume traces shown as insets)). The oocytes were exposed to the novel drugs (or control solution) for 60 min. prior to the determination of water permeability. The established AQP4 blockers, TGN-020 and AER-270, served as positive controls. […]

[14] = read-out: fu, hep (unbound fraction in hepatocytes)
[15] = human plasma proteins, read-out: hPPB% (percent human plasma protein binding) (converted)
[16] = liver, read-out: fu, liver (unbound fraction in liver)

Sequence of rat serum albumin (P02770 25-608): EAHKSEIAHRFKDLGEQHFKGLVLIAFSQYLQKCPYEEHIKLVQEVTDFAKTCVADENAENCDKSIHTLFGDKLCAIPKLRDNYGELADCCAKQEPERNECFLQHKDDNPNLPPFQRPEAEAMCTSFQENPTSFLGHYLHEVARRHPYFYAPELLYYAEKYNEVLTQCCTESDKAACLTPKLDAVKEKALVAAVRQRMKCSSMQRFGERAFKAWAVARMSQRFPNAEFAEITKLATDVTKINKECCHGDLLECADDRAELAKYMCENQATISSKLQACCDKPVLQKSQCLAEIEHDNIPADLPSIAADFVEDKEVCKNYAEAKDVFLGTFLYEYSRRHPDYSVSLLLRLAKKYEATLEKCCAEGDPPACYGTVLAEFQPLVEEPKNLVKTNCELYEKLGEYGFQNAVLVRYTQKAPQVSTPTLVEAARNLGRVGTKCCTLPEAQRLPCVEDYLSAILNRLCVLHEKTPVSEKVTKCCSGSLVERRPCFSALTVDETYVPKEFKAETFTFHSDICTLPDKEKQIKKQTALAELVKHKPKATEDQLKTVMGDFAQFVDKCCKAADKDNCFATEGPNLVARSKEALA
Sequence of human serum albumin (P02768 25-609): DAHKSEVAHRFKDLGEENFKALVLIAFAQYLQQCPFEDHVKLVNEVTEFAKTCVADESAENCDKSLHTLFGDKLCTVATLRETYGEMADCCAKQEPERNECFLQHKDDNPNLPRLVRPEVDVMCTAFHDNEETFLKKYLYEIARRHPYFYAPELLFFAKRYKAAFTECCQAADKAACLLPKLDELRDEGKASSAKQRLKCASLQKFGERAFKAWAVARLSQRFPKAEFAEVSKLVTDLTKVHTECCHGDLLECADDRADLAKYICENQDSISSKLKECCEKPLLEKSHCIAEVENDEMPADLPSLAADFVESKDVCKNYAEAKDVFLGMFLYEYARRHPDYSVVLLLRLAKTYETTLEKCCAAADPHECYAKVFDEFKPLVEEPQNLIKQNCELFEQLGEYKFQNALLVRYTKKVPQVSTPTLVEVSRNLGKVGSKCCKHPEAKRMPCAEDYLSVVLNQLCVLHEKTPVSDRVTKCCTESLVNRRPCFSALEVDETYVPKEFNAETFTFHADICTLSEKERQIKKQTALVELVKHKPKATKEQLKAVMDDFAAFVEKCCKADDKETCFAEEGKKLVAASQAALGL
Sequence of rat AQP4 (P47863 23-323): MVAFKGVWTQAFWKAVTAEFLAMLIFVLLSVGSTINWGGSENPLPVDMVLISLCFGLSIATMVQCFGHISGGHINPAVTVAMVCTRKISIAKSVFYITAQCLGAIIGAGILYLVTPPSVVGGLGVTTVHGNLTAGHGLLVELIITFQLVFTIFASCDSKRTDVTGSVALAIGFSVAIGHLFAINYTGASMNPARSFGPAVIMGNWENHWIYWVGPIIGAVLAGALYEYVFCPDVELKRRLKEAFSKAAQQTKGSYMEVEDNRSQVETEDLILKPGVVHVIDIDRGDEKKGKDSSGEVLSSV

For `O=C(Nc1cc(C(F)(F)F)cc(C(F)(F)F)c1)c1cc(Cl)ccc1O` [AER-270, N-[3,5-bis (trifluoromethyl)phenyl]-5-chloro-2-hydroxybenzamide], the “maximal inhibition of human AQP4” value [1] is listed as 20%, the pKd [2] is listed as 5.26 and the chromatographic logD [3] is listed as 3.31. For the same compound, the fraction unbound [4] was under 0.01, the fraction unbound ([5]; plasma) was 0.005 and the pKd [6] was 5.46. It also gave a fraction unbound [7] of under 0.01.

In the case of `O=C(Nc1cc(C(F)(F)F)cc(C(F)(F)F)c1)c1cc(Cl)ccc1OP(=O)(O)O` [AER-271, 2-([3,5-Bis(trifluoromethyl)phenyl]carbamoyl)-4-chlorophenyl dihydrogen phosphate], the AQP4-mediated cerebral edema ([8]; rodent model of transient MCAO) is listed as “selectively and effectively reduced”, the neurological outcome ([8]; rodent model of transient MCAO) is listed as “improved” and the “swelling in two models of CNS injury complicated by cerebral edema” value ([8]; water intoxication and ischemic stroke modeled by MCAO) is listed as “reduce swelling”. The “reduction of cerebral edema” value [9] was “ineffective”.

In the case of `CCCCNc1cc(C(=O)Nc2ccncc2)cc(S(N)(=O)=O)c1Oc1ccccc1` [AqB013], the “block of AQP4-mediated water permeability” value (shortened to “block”) [10] is given as “not be effective blockers”.

In the case of `CCOc1ccc2nc(S(N)(=O)=O)sc2c1` [Ethoxyzolamide], the “inhibition of AQP4.M23” value [11] is listed as “inhibit”.

For `O=c1[nH]c(-c2cccnc2)nc2[nH]ncc12` [ORI-TRN-002, 6-(pyridin-3-yl)-1H-pyrazolo[3,4-d]pyrimidin-4(5H)-one], the “membrane potential of treated oocytes” value ([12]; 20 μM acute application, 10 min, non-treated -25.6 ± 0.50 mV, n = 9) was −26.9 ± 0.61 mV, the “membrane potential of treated oocytes” value ([12]; 20 µM, 60 min, non-treated −26.2 ± 0.62 mV, n = 12) was −24.4 ± 0.74 mV and the Kd [2] was 1290 µM. The chromatographic logD ([3]; octanol/water) was -0.07, the fraction unbound [4, 14] was 0.95 and the pIC50 [13] was ~5.52 and 5.54. The fraction unbound [5, 15] was 0.608, the Kd [6] was 1020 µM and the fraction unbound [7, 16] was 1.

With `O=C(Nc1nncs1)c1cccnc1` [TGN-020, 2-(nicotinamide)-1,3,4-thiadiazole] the Kd [2] was 1910 µM, the chromatographic logD ([3]; octanol/water) was 0.04 and the fraction unbound [4, 14] was 0.92. The fraction unbound [5, 15] was 0.318, the Kd [6] was 309 µM and the fraction unbound [7, 16] was 1.

For `CC(=O)Nc1nnc(S(N)(=O)=O)s1` [acetazolamide], the “block” value [10] is given as “not be effective blockers”.

In the case of `CCCCNc1cc(C(=O)O)cc(S(N)(=O)=O)c1Oc1ccccc1` [bumetanide], the “block” value [10] is given as “not be effective blockers”.

For `CC[N+](CC)(CC)CC` [tetraethylammonium (TEA), tetraethylammonium], the “block” value [10] is listed as “not be effective blockers”.
